pIC50, pKi: −log10 of the molar value.

One assay deals with Bacillus cereus. Description: Inhibition of Bacillus cereus PC-PLC assessed as residual activity at 10 uM using phosphatidylcholine as substrate measured after 1 hr by horseradish peroxidase/alkaline phosphatase/choline oxidase-coupled amplex red reagent based fluorescence assay relative to control.
Conditions: not given
On to `Fc1ccccc1CNc1ccc(N2CCOCC2)cc1`, for which the Activity amounted to 0%.

With `S=C([S-])OC1CC2CC1C1CCCC21.[K+]` (stereo unspecified), the Activity turned out to be 40.3%.

Turning to `Fc1ccccc1CNc1ccc(N2CCNCC2)cc1`, the Activity stood at 24.1%.

Take `Cc1ccccc1CNc1ccc(N2CCCCC2)cc1`: the Activity stood at 14.7%.

In the case of `COC(=O)c1cc(NCc2cccc(C)c2)ccc1N1CCOCC1`, the Activity is 54%.

`CC(C)(C)OC(=O)N1CCN(c2ccc(NCc3ccccc3C(F)(F)F)cc2)CC1`: the Activity worked out at 41.3%.

Regarding `Clc1cccc(CNc2ccc(N3CCCCC3)cc2)c1`, the Activity turned out to be 24.7%.

Take `COC(=O)c1cc(NCc2ccc(-c3ccccc3)cc2)ccc1N1CCOCC1`: the Activity was 100%.

Take `CN1CCN(c2ccc(NCc3ccccc3Br)cc2)CC1`: the Activity came to 20%.

For the molecule `CC(C)(C)OC(=O)N1CCN(c2ccc(NCc3ccc(Cl)cc3)cc2)CC1`, the Activity was determined as 53.3%.

Turning to `CN1CCN(c2ccc(NCc3ccccc3C(F)(F)F)cc2)CC1`, the Activity is 25.4%.

As for `c1ccc(CNc2ccc(N3CCCCC3)cc2)cc1`, the Activity turned out to be 8.1%.

As to `O=C(O)c1cc(NCc2cccc(Cl)c2)ccc1N1CCOCC1`, the Activity came out at 10.7%.

As for `c1ccc(Oc2cccc(CNc3ccc(N4CCOCC4)cc3)c2)cc1`, the Activity came out at 39.3%.

On to `CC(C)(C)OC(=O)N1CCN(c2ccc(NCc3ccc(O)cc3)cc2)CC1`, for which the Activity came to 23.9%.

For `Fc1ccc(CNc2ccc(N3CCOCC3)cc2)cc1`, the Activity stood at 1.8%.

For `O=C(O)c1cc(NCc2ccccc2Br)ccc1N1CCOCC1`, the Activity is 40.4%.

As to `O=C(O)c1cc(NCc2ccccc2)ccc1N1CCOCC1`, the Activity was 32.5%.

For the molecule `Cc1cccc(CNc2ccc(N3CCOCC3)c(C(=O)O)c2)c1`, the Activity is 23.7%.

For `COC(=O)c1cc(NCc2cccc(OC)c2)ccc1N1CCOCC1`, the Activity came to 64.6%.

Turning to `COC(=O)c1cc(NCc2c(C)cc(C)cc2C)ccc1N1CCOCC1`, the Activity was determined as 96.8%.

Target in the next assay: not listed separately
The experiment in a line: Inhibition of Bacillus cereus PC-PLC using phosphatidylcholine as substrate measured after 1 hr by horseradish peroxidase/alkaline phosphatase/choline oxidase-coupled amplex red reagent based fluorescence assay.
Conditions: not given
On to `Fc1ccccc1CNc1ccc(N2CCOCC2)cc1`, for which the pIC50 was 5.97.

For `S=C([S-])OC1CC2CC1C1CCCC21.[K+]` (stereo unspecified), the pIC50 was 5.09 and the negative logarithm of the Ki (pKi) was 5.19.

`O=C(O)c1cc(NCc2cccc(Cl)c2)ccc1N1CCOCC1` showed a negative-log IC50 (pIC50) of 5.44.

The next assay relates to MDA-MB-231. The experiment in a line: Cytotoxicity against human MDA-MB-231 cells assessed as reduction in cell proliferation measured at 50 ug/ml measured after 48 to 72 hrs by trypan blue exclusion assay relative to control. The class given is functional. Further details: scale not given: the % may be the effect or the level left. The following applies: dose 50 µg/ml; time 48-72 hrs.
On to `S=C([S-])OC1CC2CC1C1CCCC21.[K+]` (stereo unspecified), for which the Activity came out at 60%.

Broadly, the pIC50 is the negative decadic logarithm of the IC50, by convention in mol/L. What is called pKi is the negative decadic logarithm of the Ki, by convention in mol/L.

These data come from ChEMBL document CHEMBL4680202, “Development, synthesis and biological investigation of a novel class of potent PC-PLC inhibitors” (Eur J Med Chem, 2020).
